Data reported in US6998503B2, “Crystalline solid form of (2S,5Z)-2-amino-7-(ethanimidoylamino)-2-methylhept-5-enoic acid” (Pharmacia Corporation, priority 2002, dated 2006).
“And” between values parts separate entries of the source, which are not always exact repeats. Equal entries are not always repeated.

Columns and labels:
Type in all cases: physicochemical
[1] = Solubility of the amorphate in solvents
[2] = Analysis of amorphous material (hygroscopicity note at elemental analysis); conditions: observed at elemental analysis
[3] = Moisture sorption by DVS moisture balance; conditions: for Desorption / Sorption (moisture gain) / Hysteresis Cycle 1: 25° C.
Excerpt: The crystalline 2-amino-7-(ethanimidoylamino)-2-methylhept-5-enoic acid 1.5 HCl is nonhygroscopic at and below 70% relative humidity. […] At 80% R.H. the gain was 18.5%, and at 90% R.H. the gain was 76.8%. The instrument cycled back to low relative humidity and the sample was removed then examined by polarized light microscopy. The sample was fully crystalline after removal from the moisture balance, but the crystallite size had increased. […] This salt form, 1.5 HCl has no solvation.

CC(=N)NC/C=C\CCC(C)(N)C(=O)O (stereo in doubt) [(2S,5Z)-2-amino-7-(ethanimidoylamino)-2-methylhept-5-enoic acid]
solubility ([1]; dry solvents: acetone, MEK, methyl isobutyl ketone, THF, ethyl acetate, chloroform, methylene chloride, hexanes, cyclohexane, di-isopropyl ether, acetonitrile, toluene): less than one | solubility ([1]; in isopropanol and solvents containing water: 10% water in THF, water saturated ethyl acetate, 10% water in acetonitrile, higher alcohols with water): soluble | solubility ([1]; in water, methanol and ethanol): freely soluble | hygroscopicity [2]: (Note: Material appears to be hygroscopic - elemental

CC(=N)NC/C=C\CC[C@](C)(N)C(=O)O.CC(=N)NC/C=C\CC[C@](C)(N)C(=O)O.Cl.Cl.Cl [(2S,5Z)-2-amino-7-(ethanimidoylamino)-2-methylhept-5-enoic acid 1.5 HCl]
Desorption ([3]; target RH 0.0%): 13.02% | Sorption (moisture gain) ([3]; target RH 0.0%): 0.00% | Sorption (moisture gain) ([3]; target RH 10.0%): 0.10% | Desorption ([3]; target RH 20.0%): 18.93% | Hysteresis Cycle 1 ([3]; target RH 20.0%): 18.77% | Sorption (moisture gain) ([3]; target RH 20.0%): 0.16% | Sorption (moisture gain) ([3]; target RH 30.0%): 0.21% | Desorption ([3]; target RH 40.0%): 22.72% | Hysteresis Cycle 1 ([3]; target RH 40.0%): 22.46% | Sorption (moisture gain) ([3]; target RH 40.0%): 0.26% | Sorption (moisture gain) ([3]; target RH 50.0%): 0.28% | Desorption ([3]; target RH 60.0%): 33.44% | Hysteresis Cycle 1 ([3]; target RH 60.0%): 33.16% | Sorption (moisture gain) ([3]; target RH 60.0%): 0.27% | Sorption (moisture gain) ([3]; target RH 70.0%): 0.91% | Desorption ([3]; target RH 80.0%): 67.59% | Hysteresis Cycle 1 ([3]; target RH 80.0%): 49.10% | Sorption (moisture gain) ([3]; target RH 80.0%, HCl): 18.5% and 18.48% | Sorption (moisture gain) ([3]; target RH 85.0%): 46.91% | Desorption ([3]; target RH 90.0%): 76.82% | Sorption (moisture gain) ([3]; target RH 90.0%, HCl): 76.8% and 76.82% | hygroscopicity ([3]; at and below 70% relative humidity): nonhygroscopic
